Results on eight compounds are retold here after patent EP3290412A1, “HIV-1 NUCLEOCAPSID INHIBITORS” (Università degli Studi di Siena, priority 2016, dated 2018).

What all share (format): cell-based
Data set [1] relates to HeLa cells. Description: HeLa Proliferation assay (CellTiter Glo). Conditions: 72 hours. A digest of the protocol: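 HeLa cells in phenol red-free DMEM + 10% FBS plated at 2000 cells/well, recovered 4 h, then exposed to compounds for 72 h at 37 °C, 5% CO2. Viability read by CellTiter Glo luminescence.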
Data set [2] has as its system HIV-1 reference strain NL4-3. Nature of the data set: MonoCycle assay (TZM-bl cells). A digest of the protocol: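 TZM-bl cells (20,000/well) were infected with NL4-3 in the presence of five-fold serial inhibitor dilutions. After 48 h, cells were lysed and luciferase luminescence (RLU) was counted. IC50 was derived from the RLU data.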
Data set [3] deals with Peripheral blood mononuclear cells (PBMC). Conditions: human, 7 days. A digest of the protocol:
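Healthy-donor PBMC stimulated 2 days with 5 µg/mL PHA, then seeded at 1x10^5 cells/well in medium with 20 IU/mL IL-2 and exposed to compound for 7 days. Viability measured by MTS (4 h, OD 490 nm). TD50 interpolated from dose versus percent mortality relative to untreated cells.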

Data set [4] relates to HIV-1 reference strain NL4-3. Nature of the data set: BiCycle assay (MT-2 then TZM-bl cells). A digest of the protocol: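 MT-2 cells were infected with NL4-3 in the presence of five-fold compound dilutions. After 72 h, the supernatant was passed to TZM-bl cells. Two days later, luciferase luminescence was read and IC50 calculated, giving a readout that spans the whole replication cycle.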

Setting [5] is: Human immunodeficiency virus 1, NL43, TZM-bl cells, NL4-3, 48 hours, read-out: Mono Cycle IC50.
[6] abbreviates: Human immunodeficiency virus 1, NL43, MT-2 cells 72 hours then TZM-bl cells two days, NL4-3, read-out: BiCycle IC50.
[7] abbreviates: Human immunodeficiency virus 1, NL43, TZM-bl, 48 h, read-out: Mono Cycle IC50 nM.
Setting [8] is: Human immunodeficiency virus 1, NL43, TZM-bl, read-out: BiCycle IC50 nM.

For `CC(NC(=O)c1nc(-c2nccc3ccccc23)nc(O)c1O)C1CCC(F)(F)CC1` (centres unmarked) [Compound 90, N-(1-(4,4-difluorocyclohexyl)ethyl)-5,6-dihydroxy-2-(isoquinolin-1-yl)pyrimidine-4-carboxamide], in data set [1], the “Proliferation assay HELA TD50” value was found to be 6.4522 µM. In addition, the IC50 in data set [2] (setting [5]) is above 50000 nM; in data set [4] (setting [6]) it was 1790 nM. Besides, in data set [3], the “Proliferation assay PBMC TD50” value amounted to 4270 nM.

`Cc1cc(-c2nc(O)c(O)c(C(=O)N[C@H](C)C3CCCCC3)n2)nc2ccccc12` [Compound 73, (R)-N-(1-cyclohexylethyl)-5,6-dihydroxy-2-(4-methylquinolin-2-yl)pyrimidine-4-carboxamide]: the “Proliferation assay HELA TD50” value in data set [1] came out at 5.3719 µM. Further, the IC50 in data set [2] (setting [5]) was above 50000 nM; in data set [4] (setting [6]) it was 358 nM. Also, the “Proliferation assay PBMC TD50” value in data set [3] was 5790 nM.

With `C[C@H](NC(=O)c1nc(-c2cc(C(=O)OCc3ccccc3)ccn2)nc(O)c1O)C1CCCCC1` [Compound 71, benzyl (S)-2-(4-((1-cyclohexylethyl)carbamoyl)-5,6-dihydroxypyrimidin-2-yl)isonicotinate], in data set [1], the “Proliferation assay HELA TD50” value came out at 12.825 µM. The IC50 in data set [2] (setting [7]) was above 50000 nM; in data set [4] (setting [8]) it was 559 nM. Moreover, in data set [3], the “Proliferation assay PBMC TD50” value turned out to be 1420 nM.

As to `C[C@H](NC(=O)c1nc(-c2cc3ccccc3cn2)nc(O)c1O)C1CCCCC1` [Compound 72, (S)-N-(1-cyclohexylethyl)-5,6-dihydroxy-2-(isoquinolin-3-yl)pyrimidine-4-carboxamide], the “Proliferation assay HELA TD50” value in data set [1] turned out to be 3.4875 µM. The IC50 in data set [2] (setting [7]) is 13400 nM; in data set [4] (setting [8]), 382 nM. Moreover, the “Proliferation assay PBMC TD50” value in data set [3] came out at 2270 nM.

In the case of `C[C@H](NC(=O)c1nc(-c2ccc3ccccc3n2)nc(O)c1O)C1CCCCC1` [Compound 75, (S)-N-(1-cyclohexylethyl)-5,6-dihydroxy-2-(quinolin-2-yl)pyrimidine-4-carboxamide], the “Proliferation assay HELA TD50” value in data set [1] was 7.5355 µM. In addition, the figures for the IC50 in data set [2] (setting [7]) and in data set [4] (setting [8]) were above 50000 nM and 752 nM, respectively. The “Proliferation assay PBMC TD50” value in data set [3] is given as 6900 nM.

Take `Cc1ccnc(-c2nc(O)c(O)c(C(=O)NC3(C4CCCCC4)CC3)n2)c1` [Compound 84, N-(1-cyclohexylcyclopropyl)-5,6-dihydroxy-2-(4-methylpyridin-2-yl)pyrimidine-4-carboxamide]: the “Proliferation assay HELA TD50” value in data set [1] came out at 1.9245 µM. Moreover, the IC50 was found to be 21200 nM in data set [2] (setting [5]) and 1880 nM in data set [4] (setting [6]). Further, the “Proliferation assay PBMC TD50” value in data set [3] was determined as 3470 nM.

Take `C[C@@H](NC(=O)c1nc(-c2cc(C(=O)NCc3ccccc3)ccn2)nc(O)c1O)C1CCCCC1` [Compound 74, (R)-2-(4-(benzylcarbamoyl)pyridin-2-yl)-N-(1-cyclohexylethyl)-5,6-dihydroxypyrimidine-4-carboxamide]: in data set [1], the “Proliferation assay HELA TD50” value was 3.6728 µM. Also, the IC50 was above 50000 nM in data set [2] (setting [5]) and 299 nM in data set [4] (setting [6]). The “Proliferation assay PBMC TD50” value in data set [3] was 1680 nM.

As to `C[C@H](NC(=O)c1nc(-c2ccc(C(=O)OCc3ccccc3)cn2)nc(O)c1O)C1CCCCC1` [Compound 70, benzyl (S)-6-(4-((1-cyclohexylethyl)carbamoyl)-5,6-dihydroxypyrimidin-2-yl)nicotinate], the “Proliferation assay HELA TD50” value in data set [1] is 4.1006 µM. Further, the IC50 was above 50000 nM in data set [2] (setting [7]) and 190 nM in data set [4] (setting [8]). Also, the “Proliferation assay PBMC TD50” value in data set [3] was 500 nM.
